From US20140323418A1, “SELECTIVE KINASE INHIBITORS” (PORTOLA PHARMACEUTICALS, INC., priority 2011, published 2014) come the findings set out here.

Structures are written as SMILES.

For this assay, the target named is T1, full length active recombinant SYK enzyme (Homo sapiens, UniProt P43405).
T1 construct: full length active recombinant SYK enzyme (Millipore, Calif.); purchased Millipore
Put plainly: Inhibition of Syk tyrosine phosphorylation activity (LANCE TR-FRET kinase assay). The following applies: 1 nM SYK, 550 nM substrate, 100 μM ATP, 1 hour room temperature. The format is biochemical. In general terms: Time-resolved FRET reads energy transfer from a long-lived donor to a nearby acceptor.
Broadly, the IC50 is the concentration that gives 50% inhibition. For the compound `NC(=O)c1cnc(N[C@@H]2CCOC[C@@H]2N)nc1Nc1csc2ncccc12` [Example 179, 2-((3R,4R)-3-aminotetrahydro-2H-pyran-4-ylamino)-4-(thieno[2,3-b]pyridin-3-ylamino)pyrimidine-5-carboxamide], the IC50 was 10 to 100 nM.
In the case of `NC(=O)c1cnc(N[C@@H]2CCCC[C@@H]2n2ccnn2)nc1Nc1cccc(-n2nccn2)c1` [Example 9, 2-((1R,2S)-2-(1H-1,2,3-triazol-1-yl)cyclohexylamino)-4-(3-(2H-1,2,3-triazol-2-yl)phenylamino)pyrimidine-5-carboxamide], the IC50 fell in the range of 100 to 1000 nM.
Next, `CC[C@@H](Nc1ncc(C(N)=O)c(Nc2csc3ncccc23)n1)C(N)=O` [Example 55, (R)-2-((1-amino-1-oxobutan-2-yl)amino)-4-(thieno[2,3-b]pyridin-3-ylamino)pyrimidine-5-carboxamide]: 10 to 100 nM; `Cc1cccc(Nc2nc(N[C@@H](c3ccccc3)C3(N)CC3)ncc2C(N)=O)c1` [Example 148, (5)-2-(1-(1-aminocyclopropyl)(phenyl)methylamino)-4-(m-tolylamino)pyrimidine-5-carboxamide]: 100 to 1000 nM; `NC(=O)c1cnc(N[C@@H]2CCC[C@H](F)[C@@H]2N)nc1Nc1ccc2ncsc2c1` [Example 239, 2-((1R,2R,3S)-2-amino-3-fluorocyclohexylamino)-4-(benzo[d]thiazol-6-ylamino)pyrimidine-5-carboxamide]: 10 to 100 nM.
Then `NC(=O)c1cnc(N[C@@H]2CCCC[C@@H]2N)nc1Nc1cc(Br)cc(-n2nccn2)c1` [Example 21, 2-((1R,2S)-2-aminocyclohexylamino)-4-(3-bromo-5-(2H-1,2,3-triazol-2-yl)phenylamino)pyrimidine-5-carboxamide], with 10 to 100 nM.
Take `Cc1cccc(Nc2nc(N[C@@H]3CC[C@@H](C(=O)N4CCC4)C[C@@H]3N)ncc2C(N)=O)c1` [Example 191, 2-((1R,2S,4R)-2-amino-4-(azetidine-1-carbonyl)cyclohexylamino)-4-(m-tolylamino)pyrimidine-5-carboxamide]: the IC50 lay within 1 to 10 nM.
On to `NC(=O)c1cnc(N[C@@H]2CCCC(F)(F)[C@@H]2N)nc1Nc1ccc2ncccc2c1` [Example 169, 2-((1R,2R)-2-amino-3,3-difluorocyclohexylamino)-4-(quinolin-6-ylamino)pyrimidine-5-carboxamide], for which the IC50 was in the range of 10 to 100 nM.
For the compound `Cc1cccc(Nc2nc(NC[C@@H](N)CC(F)F)ncc2C(N)=O)c1` [Example 78, (S)-4-(m-toluidino)-2-(2-amino-4,4-difluorobutylamino)pyrimidine-5-carboxamide], the IC50 is 10 to 100 nM.
In the case of `C[C@@H](Nc1ncc(C(N)=O)c(Nc2cccc(-c3ncccn3)c2)n1)C1(N)CC1` [Example 141, (R)-2-(1-(1-aminocyclopropyl)ethylamino)-4-(3-(pyrimidin-2-yl)phenylamino)pyrimidine-5-carboxamide], the IC50 lay within 1 to 10 nM.
With `CC[C@@H](Nc1ncc(C(N)=O)c(Nc2ccc(-c3cncs3)cc2)n1)C(N)=O` [Example 58, (R)-2-((1-amino-1-oxobutan-2-yl)amino)-4-((4-(thiazol-5-yl)phenyl)amino)pyrimidine-5-carboxamide], the IC50 was in the range of 10 to 100 nM.
As to `CCO[C@H]1CCCC[C@H]1Nc1ncc(C(N)=O)c(Nc2cccc(-n3nccn3)c2)n1` [Example 7, 4-(3-(2H-1,2,3-triazol-2-yl)phenylamino)-2-((1R,2S)-2-ethoxycyclohexylamino)pyrimidine-5-carboxamide], the IC50 is 100 to 1000 nM.
On to `CC(=O)Oc1cnn(-c2cccc(Nc3nc(N[C@@H]4CCCC[C@@H]4N)ncc3C(N)=O)c2)n1` [Example 253, 2-(3-((2-(((1R,2S)-2-aminocyclohexyl)amino)-5-carbamoylpyrimidin-4-yl)amino)phenyl)-2H-1,2,3-triazol-4-yl acetate], for which the IC50 was over 1000 nM.
Take `NC(=O)c1cnc(N[C@H](C2CC2)C2(N)CC2)nc1Nc1cccc(F)c1` [Example 156, (R)-2-(1-(1-aminocyclopropyl)(cyclopropyl)methylamino)-4-(3-fluorophenylamino)pyrimidine-5-carboxamide]: the IC50 fell in the range of 1 to 10 nM.
Take `NC(=O)c1cnc(N[C@@H]2CCCC(F)(F)[C@@H]2N)nc1Nc1cccc(-n2nccn2)c1` [Example 13]: the IC50 is 100 to 1000 nM.
Then `CC(C)[C@@H](Nc1ncc(C(N)=O)c(Nc2ccc3cccnc3c2)n1)C(N)=O` [Example 77, (R)-2-(1-amino-3-methyl-1-oxobutan-2-ylamino)-4-(quinolin-7-ylamino)pyrimidine-5-carboxamide], with 100 to 1000 nM; and `NC(=O)c1cnc(N[C@@H]2CCC[C@H](F)[C@@H]2N)nc1Nc1cccc(-n2cccn2)c1` [Example 238, 4-(3-(1H-pyrazol-1-yl)phenylamino)-2-((1R,2R,3S)-2-amino-3-fluorocyclohexylamino)pyrimidine-5-carboxamide], with 10 to 100 nM.
Turning to `NC(=O)c1cnc(N[C@@H]2CCC[C@H](F)[C@@H]2N)nc1Nc1cccc(-c2ncccn2)c1` [Example 236, 2-((1R,2R,3S)-2-amino-3-fluorocyclohexylamino)-4-(3-(pyrimidin-2-yl)phenylamino)pyrimidine-5-carboxamide], the half-maximal inhibitory concentration (IC50) lay within 10 to 100 nM.
Regarding `Cc1cccc(Nc2nc(N[C@H]3CC[C@@H](N)C3)ncc2C(N)=O)c1` [Example 118, 4-(m-toluidino)-2-((1S,3R)-3-aminocyclopentylamino)pyrimidine-5-carboxamide], the IC50 was in the range of 100 to 1000 nM.
Then `Cc1cc(C)cc(Nc2nc(N[C@@H]3CCCC(F)(F)[C@@H]3N)ncc2C(N)=O)c1` [Example 33, 2-(((1R,2R)-2-amino-3,3-difluorocyclohexyl)amino)-4-((3,5-dimethylphenyl)amino)pyrimidine-5-carboxamide], with 100 to 1000 nM; and `NC(=O)c1cnc(N[C@@H]2CCOC[C@@H]2N)nc1Nc1ccccc1` [Example 52, 2-(((3R,4R)-3-aminotetrahydro-2H-pyran-4-yl)amino)-4-(phenylamino)pyrimidine-5-carboxamide], with 100 to 1000 nM; and `CN1C(=O)Cc2c(Nc3nc(N[C@@H]4CCCC[C@@H]4N)ncc3C(N)=O)cccc21` [Example 96, 2-((1R,2S)-2-aminocyclohexylamino)-4-(1-methyl-2-oxoindolin-4-ylamino)pyrimidine-5-carboxamide], with 100 to 1000 nM.
For the compound `CCn1ccc2c(Nc3nc(NCC(C)C)ncc3C(N)=O)cccc21` [Example 116, 4-(1-ethyl-1H-indol-4-ylamino)-2-(isobutylamino)pyrimidine-5-carboxamide], the IC50 was 100 to 1000 nM.
Then `NC(=O)c1cnc(N[C@@H]2CCCC[C@@H]2N)nc1Nc1cc(-n2cccn2)cc(-n2cccn2)c1` [Example 249, 2-(((1R,2S)-2-aminocyclohexyl)amino)-4-((3,5-di(1H-pyrazol-1-yl)phenyl)amino)pyrimidine-5-carboxamide], with 1 to 10 nM.
For `CC[C@@H](Nc1ncc(C(N)=O)c(Nc2cccc(-c3ncccn3)c2)n1)C1(N)CC1` [Example 131, (R)-2-(1-(1-aminocyclopropyl)propylamino)-4-(3-(pyrimidin-2-yl)phenylamino)pyrimidine-5-carboxamide], the IC50 was 1 to 10 nM.
Consider `Cn1ccc2c(Nc3nc(N[C@@H]4CCCC[C@@H]4O)ncc3C(N)=O)cccc21` [Example 107, 2-((1R,2S)-2-hydroxycyclohexylamino)-4-(1-methyl-1H-indol-4-ylamino)pyrimidine-5-carboxamide], for which the IC50 is 100 to 1000 nM.
With `NC(=O)c1cnc(N[C@@H]2CCC[C@@H](F)[C@@H]2N)nc1Nc1cccc(-n2nccn2)c1` (racemic) [Example 242, (±)-4-(3-(2H-1,2,3-triazol-2-yl)phenylamino)-2-((1R,2R,3R)-2-amino-3-fluorocyclohexylamino)pyrimidine-5-carboxamide], the IC50 lay in the range of 10 to 100 nM.
Regarding `NC(=O)c1cnc(N[C@@H]2[C@H](F)CCC[C@@H]2N)nc1Nc1cccc(-n2nccn2)c1` (racemic) [Example 175, (±)-4-(3-(2H-1,2,3-triazol-1-yl)phenylamino)-2-((1S,2S,6R)-2-amino-6-fluorocyclohexylamino)pyrimidine-5-carboxamide], the IC50 is 10 to 100 nM.
As to `NC(=O)c1cnc(N[C@@H]2CCCC[C@@H]2CO)nc1Nc1cccc(-n2nccn2)c1` (racemic) [Example 256, 4-((3-(2H-1,2,3-triazol-2-yl)phenyl)amino)-2-(((1R,2S)-2-(hydroxymethyl)cyclohexyl)amino)pyrimidine-5-carboxamide], the IC50 lay in the range of 100 to 1000 nM.
As to `CC[C@@H](Nc1ncc(C(N)=O)c(Nc2cccc(-n3cccn3)c2)n1)C1(N)CC1` [Example 132, (R)-4-(3-(1H-pyrazol-1-yl)phenylamino)-2-(1-(1-aminocyclopropyl)propylamino)pyrimidine-5-carboxamide], the half-inhibitory concentration (IC50) was in the range of 1 to 10 nM.
Then `CCn1ccc2c(Nc3nc(NC4CC4)ncc3C(N)=O)cccc21` [Example 114, 2-(cyclopropylamino)-4-(1-ethyl-1H-indol-4-ylamino)pyrimidine-5-carboxamide], with 100 to 1000 nM; and `CCO[C@@H]1CCCC[C@H]1Nc1ncc(C(N)=O)c(Nc2cccc(-n3nccn3)c2)n1` [Example 6], with 100 to 1000 nM.
As for `N#Cc1cccc(Nc2nc(N[C@@H]3CCOC[C@@H]3N)ncc2C(N)=O)c1` [Example 53, 2-(((3R,4R)-3-aminotetrahydro-2H-pyran-4-yl)amino)-4-((3-cyanophenyl)amino)pyrimidine-5-carboxamide], the IC50 lay within 10 to 100 nM.
Take `NC(=O)c1cnc(N[C@H](C2CC2)C2(N)CC2)nc1Nc1ccc2scnc2c1` [Example 166, (R)-2-(1-(1-aminocyclopropyl)(cyclopropyl)methylamino)-4-(benzo[d]thiazol-5-ylamino)pyrimidine-5-carboxamide]: the IC50 lay within 10 to 100 nM.
For `NC(=O)c1cnc(N[C@@H]2CCCC(F)(F)[C@@H]2N)nc1Nc1ccccc1` [Example 27, 2-(((1R,2R)-2-amino-3,3-difluorocyclohexyl)amino)-4-(phenylamino)pyrimidine-5-carboxamide], the IC50 fell in the range of 100 to 1000 nM.
